Reference: patent US20080274892A1, “Novel Haloalkylsulfonanilide Derivative, Herbicide, and Method of Use Thereof” (priority 2005, published 2008)

Legend:
[1] = tested on: false pimpernel; test: Test Example 1: herbicidal efficacy on rice paddy weeds pre-emergence; format: in vivo, Lindernia pyxidaria; conditions: 21 days
[2] = tested on: bulrush; test: Test Example 2: herbicidal efficacy on rice paddy weeds post-emergence; format: in vivo, Scirpus juncoides; conditions: post-emergence, one leaf stage, 21 days after treatment
[3] = tested on: transplanted paddy rice plant and Bulrush; test: Test Example 5: selectivity between transplanted paddy rice plant and weeds; format: in vivo; conditions: (highest dosage with no phytotoxicity to paddy rice)/(lowest dosage with effective level 4 on Bulrush); rice 3000-100 g/ha, Bulrush 300-10 g/ha; 21 days
Experimental: (§1) The standard of judgment for herbicidal efficacy (degree of growth inhibition) and phytotoxicity 4 . . . 90%-100% of herbicidal efficacy or phytotoxicity 3 . . . 70%-89% of herbicidal efficacy or phytotoxicity 2 . . . 40%-69% of herbicidal efficacy or phytotoxicity 1 . . . 1%-39% of herbicidal efficacy or phytotoxicity 0 . . . 0% of herbicidal efficacy or phytotoxicity
Phytotoxicity test for transplanted paddy rice plants was carried out, as in Test Example 3, by the treatment of 3000, 1000, 300 and 100 (g/ha of the active ingredient) dosage, and herbicidal test to weed post-emergence was carried out to Burlush seeded as in Test Example 2 treating at 300, 100, 30 and 10 (g/ha) dosage. The pots were kept in a hot house for 21 days after the treatment, and the phytotoxicity and the herbicidal efficacy was investigated and evaluated according to the standard in Test Example 1 by comparing with the untreated control. […] Further, as a comparative compound, the compound No. 6-28 described in the JP-A-2004-107322 was used.

[4] = tested on: barnyard glass; test: Test Example 2: herbicidal efficacy on rice paddy weeds post-emergence; format: in vivo, Echinochloa crus-galli; conditions: dosage 1000 g/ha; post-emergence, one leaf stage; 21 days after treatment
Summary of the method: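 Plastic pots of 75 cm^2 were filled with clay loam soil and sown with barnyard glass and bulrush seeds, then topped with 75 cm^3 soil containing false pimpernel seeds. The pots were flooded to 5 cm water depth and held in a hot house. Twenty-one days after treatment, herbicidal efficacy was graded against an untreated control.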

[5] = tested on: bulrush; test: Test Example 4: low dosage test for rice paddy weeds; format: in vivo, Scirpus juncoides; conditions: 300 g/ha as an active ingredient; plants treated at the one leaf stage; 21 days after treatment; vs untreated control
Text: as §1
A 75 cm^2 plastic pot was filled with soil (clay loam) and planted seeds of bulrush which is a rice paddy weed. After covering the top with 75 cm^3 soil, the pot was filled with water so that the soil submerged under 5 cm depth of water and kept in a hot house. The test plants, at the one leaf stage, were treated with the solution of a formulation containing the compound of the present invention as an active ingredient at the predetermined effective dosage (300 g/ha as an active ingredient). The pots were kept in a hot house for 21 days after the treatment and the herbicidal efficacy was investigated and evaluated according to the standard in Test Example 1 by comparing with the untreated control. Further, as a comparative compound, the compound No. 6-28 described in the JP-A-2004-107322 was used.

[6] = tested on: bulrush; test: Test Example 1: herbicidal efficacy on rice paddy weeds pre-emergence; format: in vivo, Scirpus juncoides; conditions: 21 days
[7] = tested on: false pimpernel; test: Test Example 2: herbicidal efficacy on rice paddy weeds post-emergence; format: in vivo, Lindernia pyxidaria; conditions: post-emergence, one leaf stage, 21 days after treatment
[8] = tested on: paddy rice plant (cultivar: Nihonbare); test: Test Example 3: phytotoxicity test for transplanted paddy rice plant; format: in vivo; conditions: transplanted rice, 21 days after treatment
Summary of the method: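 Clay loam soil was placed in a 75 cm^2 plastic pot and flooded to a water depth of 5 cm. Two Nihonbare paddy rice plants at the two-leaf stage were transplanted 1 cm deep and grown in a hot house. After treatment, pots stayed in the hot house for 21 days, and phytotoxicity was then graded against an untreated control.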

[9] = dosage 1000 g/ha, treated 5 days after transplantation

SMILES	False pimpernel pre (herbicidal efficacy grade) ([1]; dosage 1000 g/ha)	Bulrush post (herbicidal efficacy grade) ([2]; dosage 1000 g/ha)	Selective Index [3]	Burnyard grass post (herbicidal efficacy grade) [4]	Herbicide effect to Bulrush [5]	Bulrush pre (herbicidal efficacy grade) ([6]; dosage 1000 g/ha)	False pimpernel post (herbicidal efficacy grade) ([7]; dosage 1000 g/ha)	Phytotoxicity to paddy rice [8, 9]	False pimpernel pre (herbicidal efficacy grade) ([1]; dosage 300 g/ha)	Bulrush post (herbicidal efficacy grade) ([2]; dosage 300 g/ha)	Bulrush pre (herbicidal efficacy grade) ([6]; dosage 300 g/ha)	False pimpernel post (herbicidal efficacy grade) ([7]; dosage 300 g/ha)	Phytotoxicity to paddy rice ([8]; dosage 300 g/ha)
CC(C)OC(=O)N(c1ccccc1CN1CC(C)(C2CC2)OC1=O)S(=O)(=O)C(F)(F)F (racemic) [1-118]	4 (90%-100% of herbicidal efficacy or phytotoxicity)	4 (90%-100% of herbicidal efficacy or phytotoxicity)	30	4 (90%-100% of herbicidal efficacy or phytotoxicity)	4 (90%-100% of herbicidal efficacy or phytotoxicity)	4 (90%-100% of herbicidal efficacy or phytotoxicity)	4 (90%-100% of herbicidal efficacy or phytotoxicity)	1 (1%-39% of herbicidal efficacy or phytotoxicity)					
CC(C)COC(=O)N(c1ccccc1CN1CC2(CCCCC2)OC1=O)S(=O)(=O)C(F)(F)F [1-46]	4 (90%-100% of herbicidal efficacy or phytotoxicity)	4 (90%-100% of herbicidal efficacy or phytotoxicity)	10	4 (90%-100% of herbicidal efficacy or phytotoxicity)	4 (90%-100% of herbicidal efficacy or phytotoxicity)	4 (90%-100% of herbicidal efficacy or phytotoxicity)	4 (90%-100% of herbicidal efficacy or phytotoxicity)	1 (1%-39% of herbicidal efficacy or phytotoxicity)					
CC1(C)CN(Cc2ccccc2N(C(=O)OCC(Cl)(Cl)Cl)S(=O)(=O)C(F)(F)F)C(=O)O1 [1-65]	4 (90%-100% of herbicidal efficacy or phytotoxicity)	4 (90%-100% of herbicidal efficacy or phytotoxicity)	10	4 (90%-100% of herbicidal efficacy or phytotoxicity)	4 (90%-100% of herbicidal efficacy or phytotoxicity)	4 (90%-100% of herbicidal efficacy or phytotoxicity)	4 (90%-100% of herbicidal efficacy or phytotoxicity)	1 (1%-39% of herbicidal efficacy or phytotoxicity)					
COC(=O)N(c1ccccc1CN1C(=O)OC(C)(C)C1=O)S(=O)(=O)C(F)(F)F [1-188]	4 (90%-100% of herbicidal efficacy or phytotoxicity)	4 (90%-100% of herbicidal efficacy or phytotoxicity)	≧10	4 (90%-100% of herbicidal efficacy or phytotoxicity)	4 (90%-100% of herbicidal efficacy or phytotoxicity)	4 (90%-100% of herbicidal efficacy or phytotoxicity)	4 (90%-100% of herbicidal efficacy or phytotoxicity)	1 (1%-39% of herbicidal efficacy or phytotoxicity)					
CCC(C)COC(=O)N(c1ccccc1CN1CC(C)(C)OC1=O)S(=O)(=O)C(F)(F)F (centres unmarked) [1-67]	4 (90%-100% of herbicidal efficacy or phytotoxicity)	4 (90%-100% of herbicidal efficacy or phytotoxicity)	≧30	4 (90%-100% of herbicidal efficacy or phytotoxicity)	4 (90%-100% of herbicidal efficacy or phytotoxicity)	4 (90%-100% of herbicidal efficacy or phytotoxicity)	4 (90%-100% of herbicidal efficacy or phytotoxicity)	1 (1%-39% of herbicidal efficacy or phytotoxicity)					
COC(=O)N(c1ccccc1CN1CC(C)OC1=O)S(=O)(=O)C(F)(F)F (racemic) [1-54]	4 (90%-100% of herbicidal efficacy or phytotoxicity)	4 (90%-100% of herbicidal efficacy or phytotoxicity)	33.3	4 (90%-100% of herbicidal efficacy or phytotoxicity)	4 (90%-100% of herbicidal efficacy or phytotoxicity)	4 (90%-100% of herbicidal efficacy or phytotoxicity)		0 (0% of herbicidal efficacy or phytotoxicity)					
O=C1OC(C2CC2)(C2CC2)CN1Cc1ccccc1NS(=O)(=O)C(F)(F)F [1-170]	4 (90%-100% of herbicidal efficacy or phytotoxicity)	4 (90%-100% of herbicidal efficacy or phytotoxicity)	10		4 (90%-100% of herbicidal efficacy or phytotoxicity)	4 (90%-100% of herbicidal efficacy or phytotoxicity)	4 (90%-100% of herbicidal efficacy or phytotoxicity)	2 (40%-69% of herbicidal efficacy or phytotoxicity)					
CCC1(CC)CN(Cc2ccccc2N(C(=O)OC)S(=O)(=O)C(F)(F)F)C(=O)O1 [1-109]	4 (90%-100% of herbicidal efficacy or phytotoxicity)	4 (90%-100% of herbicidal efficacy or phytotoxicity)	≧30		4 (90%-100% of herbicidal efficacy or phytotoxicity)	4 (90%-100% of herbicidal efficacy or phytotoxicity)	4 (90%-100% of herbicidal efficacy or phytotoxicity)	1 (1%-39% of herbicidal efficacy or phytotoxicity)					
COC(=O)N(c1ccccc1CN1CC(C2CC2)(C2CC2)OC1=O)S(=O)(=O)C(F)(F)F [1-172]	4 (90%-100% of herbicidal efficacy or phytotoxicity)	4 (90%-100% of herbicidal efficacy or phytotoxicity)	10		4 (90%-100% of herbicidal efficacy or phytotoxicity)	4 (90%-100% of herbicidal efficacy or phytotoxicity)	4 (90%-100% of herbicidal efficacy or phytotoxicity)	1 (1%-39% of herbicidal efficacy or phytotoxicity)					
COCC1(C)CN(Cc2ccccc2N(C(=O)OC)S(=O)(=O)C(F)(F)F)C(=O)O1 (centres unmarked) [1-147]			10		4 (90%-100% of herbicidal efficacy or phytotoxicity)				4 (90%-100% of herbicidal efficacy or phytotoxicity)	4 (90%-100% of herbicidal efficacy or phytotoxicity)	4 (90%-100% of herbicidal efficacy or phytotoxicity)	4 (90%-100% of herbicidal efficacy or phytotoxicity)	1 (1%-39% of herbicidal efficacy or phytotoxicity)
O=C1OC2(CCC2)CN1Cc1ccccc1NS(=O)(=O)C(F)(F)F [1-87]			3		3 (70%-89% of herbicidal efficacy or phytotoxicity)				4 (90%-100% of herbicidal efficacy or phytotoxicity)	4 (90%-100% of herbicidal efficacy or phytotoxicity)	4 (90%-100% of herbicidal efficacy or phytotoxicity)	4 (90%-100% of herbicidal efficacy or phytotoxicity)	1 (1%-39% of herbicidal efficacy or phytotoxicity)
COC(=O)N(c1ccccc1CN1CC(C(F)(F)F)OC1=O)S(=O)(=O)C(F)(F)F (centres unmarked) [1-151]	4 (90%-100% of herbicidal efficacy or phytotoxicity)	4 (90%-100% of herbicidal efficacy or phytotoxicity)	3		3 (70%-89% of herbicidal efficacy or phytotoxicity)	4 (90%-100% of herbicidal efficacy or phytotoxicity)	4 (90%-100% of herbicidal efficacy or phytotoxicity)	1 (1%-39% of herbicidal efficacy or phytotoxicity)					
